In article PMC6986724, “Crystal structure of PMGL2 esterase from the hormone-sensitive lipase family with GCSAG motif around the catalytic serine” (PLoS ONE, 2020):

Target: T1, PMGL2 (uncultured bacterium, UniProt Z9SFY5SHV8, S173T/C202S, form not given)
T1 construct: recombinant, cloned into pET32a, poly-His tag; homodimer; GCSAG motif 172-176, catalytic Ser174, Asp272, His302; 319 residues visible in the mutant crystal
T1 sequence (Z9SFY5SHV8 1-343 S173T/C202S): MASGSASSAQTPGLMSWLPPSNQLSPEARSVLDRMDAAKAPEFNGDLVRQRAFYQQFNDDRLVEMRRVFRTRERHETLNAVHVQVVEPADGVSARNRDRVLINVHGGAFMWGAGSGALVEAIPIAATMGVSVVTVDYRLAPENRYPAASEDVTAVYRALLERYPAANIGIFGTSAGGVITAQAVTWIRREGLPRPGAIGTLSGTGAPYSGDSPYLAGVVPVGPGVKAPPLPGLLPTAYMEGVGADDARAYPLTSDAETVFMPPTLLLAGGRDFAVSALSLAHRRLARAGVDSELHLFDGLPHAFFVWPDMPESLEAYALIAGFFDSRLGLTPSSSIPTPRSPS
Assay: esterase kinetics
Type: biochemical
Conditions: 25 °C

- Km: 450 µM
SMILES: CCCC(=O)Oc1ccc([N+](=O)[O-])cc1 [p-nitrophenyl butyrate]
